This note sets out measurements from patent publication US20260022116A1, “IMIDAZOPYRIDINE COMPOUNDS, PREPARATION THEREOF AND THERAPEUTIC USES THEREOF” (SANOFI, priority 2022, published 2026).

Assay [1] deals with T1, ERK5 (Homo sapiens, UniProt Q13164). The experiment in a line: cell-based.
Target sequence in this assay (Q13164 whole entry): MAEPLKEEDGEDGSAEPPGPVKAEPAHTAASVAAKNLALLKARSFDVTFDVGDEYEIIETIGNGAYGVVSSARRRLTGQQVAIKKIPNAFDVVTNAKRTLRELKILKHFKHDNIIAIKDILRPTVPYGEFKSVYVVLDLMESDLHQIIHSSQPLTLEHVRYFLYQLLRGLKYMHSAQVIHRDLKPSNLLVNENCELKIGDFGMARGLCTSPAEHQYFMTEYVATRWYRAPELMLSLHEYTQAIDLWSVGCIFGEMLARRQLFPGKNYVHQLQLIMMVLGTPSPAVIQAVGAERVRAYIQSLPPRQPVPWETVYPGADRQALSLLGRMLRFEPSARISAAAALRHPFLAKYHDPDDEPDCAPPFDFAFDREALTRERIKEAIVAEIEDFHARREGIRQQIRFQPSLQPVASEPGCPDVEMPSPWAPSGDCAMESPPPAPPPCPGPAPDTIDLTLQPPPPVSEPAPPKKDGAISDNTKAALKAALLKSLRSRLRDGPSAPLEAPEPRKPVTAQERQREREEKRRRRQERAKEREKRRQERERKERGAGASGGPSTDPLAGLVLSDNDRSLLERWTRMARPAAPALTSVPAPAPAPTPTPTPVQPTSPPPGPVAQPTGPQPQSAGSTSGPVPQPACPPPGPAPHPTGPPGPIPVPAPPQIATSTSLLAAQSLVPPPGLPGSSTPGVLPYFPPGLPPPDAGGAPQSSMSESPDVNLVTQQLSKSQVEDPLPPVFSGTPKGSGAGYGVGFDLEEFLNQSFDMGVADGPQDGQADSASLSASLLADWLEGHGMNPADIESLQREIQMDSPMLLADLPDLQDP
Experimental: (§1) Two assays were performed to assess the ERK5 inhibitory activity of compounds of the Examples, a cell-based assay and a cell-free biochemical assay.
The renal cancer cell line SN12C was transduced by a lentivirus pGreenFire1 MEF2 EF1 Neo (ref TR030VA-N) from SBI using standard infection protocol. pGreenFire1 MEF2 EF1 Neo allows the expression of luciferase gene under the control of minimal promoter with MEF2 transcriptional response elements. Cells harboring the reporter construct were selected by geneticin treatment. The selected cells were then transposed by a piggyback based plasmid pCM4007 allowing the expression of constitutively activated MEK5DD under control of TREG3 promoter, a doxycycline regulated promoter. Transposed cells were selected by puromycin treatment. Upon doxycycline treatment (1 μg/ml) MEK5DD was expressed. MEK5DD activates ERK5 that phosphorylates MEF2C protein. Activated MEF2C protein can bind to its transcriptional response elements. Then the luciferase is expressed. In a 96-well plate (96F nuncleon ref137101 thermofisher), 50,000 cells were inoculated in 142.5 μl of RPMI medium containing 10% fetal calf serum, 1% glutamine, and 1 μg/ml doxycycline. […] The luciferase activity was measured using the Kit Bright Glo Luminescent Cell Assay Cat E2610 (Promega) according to the manufacturer's protocol. Luminescence was determined using 0.2 second reading/well using a Tecan SPARK. IC50 values were calculated using XLFIT5 for Microsoft Excel using method 205.
The target in assay [2] is T1, ERK5. The assay can be described thus: biochemical.
Target sequence in this assay (Q13164 55-347 limits assumed): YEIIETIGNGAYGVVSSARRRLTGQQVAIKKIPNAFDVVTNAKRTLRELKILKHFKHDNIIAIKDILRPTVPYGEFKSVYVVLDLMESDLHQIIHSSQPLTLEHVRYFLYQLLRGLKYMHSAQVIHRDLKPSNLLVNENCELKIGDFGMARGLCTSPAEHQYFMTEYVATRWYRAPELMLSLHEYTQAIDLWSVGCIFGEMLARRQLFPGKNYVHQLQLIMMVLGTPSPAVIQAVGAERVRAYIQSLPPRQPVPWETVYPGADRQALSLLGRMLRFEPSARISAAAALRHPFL
Experimental: as §1
An assay was performed to measure the capacity of each compound to inhibit ERK5 enzymatic activity. Compound potency was evaluated by Time-Resolved Forster Resonance Energy Transfer (FRET system). […] A mixture of 1 mM ATP and 1 μM biotinylated synthetic peptide was added (Biosyntan GmbH). This synthetic peptide represents amino acids 30-52 of Eukaryotic translation initiation factor 4E-binding protein 1 (see, e.g., the sequence under accession No. NP_004086.1) biotinylated at the N-terminus.

Counter-ions that a name gives are not always drawn.

As usually defined, the IC50 is the concentration that inhibits the measured activity by half. High values mean weaker potency, low ones greater potency. `O=C1CC(C(=O)N2CCC(c3ccnc4[nH]c(C5CCOCC5)nc34)CC2)CN1Cc1ccccc1Cl` (centres unmarked) [Example 110, 1-[(2-chlorophenyl)methyl]-4-[4-(2-tetrahydropyran-4-yl-3H-imidazo[4,5-b]pyridin-7-yl)piperidine-1-carbonyl]pyrrolidin-2-one]: the IC50 against ERK5 [1] was greater than 10000 nM.

On ERK5 [1], `CC(Oc1ccc(C(F)(F)F)cc1Cl)C(=O)N1CCC(c2ccnc3[nH]c(C4CCOCC4)nc23)CC1` (centres unmarked) [Example 87, 2-[2-chloro-4-(trifluoromethyl)phenoxy]-1-[4-(2-tetrahydropyran-4-yl-3H-imidazo[4,5-b]pyridin-7-yl)-1-piperidyl]propan-1-one] came in with an IC50 greater than 10000 nM.

In turn, `O=C(C1CC(=O)N(c2ccc(F)cc2)C1)N1CCC(c2ccnc3[nH]c(C4CCOCC4)nc23)CC1` (centres unmarked) [Example 111, 1-(4-fluorophenyl)-4-[4-(2-tetrahydropyran-4-yl-3H-imidazo[4,5-b]pyridin-7-yl)piperidine-1-carbonyl]pyrrolidin-2-one] returned an IC50 on ERK5 [1] greater than 10000 nM.

On ERK5 [1], `O=C(C1CC12C(=O)Nc1ccccc12)N1CCC(c2ccnc3[nH]c(C4CCOCC4)nc23)CC1` (centres unmarked) [Example 117, 2-[4-(2-tetrahydropyran-4-yl-3H-imidazo[4,5-b]pyridin-7-yl)piperidine-1-carbonyl]spiro[cyclopropane-1,3′-indoline]-2′-one] had an IC50 greater than 10000 nM.

In the case of `CCn1cc(N)c(C(=O)N2CCC(c3ccnc4[nH]c(C5CCOCC5)nc34)CC2)n1` [Example 115, (4-amino-1-ethyl-pyrazol-3-yl)-[4-(2-tetrahydropyran-4-yl-3H-imidazo[4,5-b]pyridin-7-yl)-1-piperidyl]methanone], the IC50 on ERK5 [1] is greater than 10000 nM.

Consider `O=C(c1ccc(OC(F)(F)F)cc1)N1CCC(c2c(F)cnc3[nH]c(C4CCC5(COC5)N(C(=O)O)C4)nc23)CC1` (racemic) [Example 461, (rac)-7-[6-fluoro-7-[1-[4-(trifluoromethoxy)benzoyl]-4-piperidyl]-3H-imidazo[4,5-b]pyridin-2-yl]-2-oxa-5-azaspiro[3.5]nonane-5-carboxylic acid], for which 244 nM corresponded to half-maximal inhibition at ERK5 [2] (IC50).

Regarding `O=C(c1cnn2c1NCCC2C(F)(F)F)N1CCC(c2ccnc3[nH]c(C4CCOCC4)nc23)CC1` (centres unmarked) [Example 79, [4-(2-tetrahydropyran-4-yl-3H-imidazo[4,5-b]pyridin-7-yl)-1-piperidyl]-[7-(trifluoromethyl)-4,5,6,7-tetrahydropyrazolo[1,5-a]pyrimidin-3-yl]methanone], the IC50 on ERK5 [1] was 7890 nM.

With `Cc1cc2ncc(C(=O)N3CCC(c4ccnc5[nH]c(C6CCOCC6)nc45)CC3)c(N)n2n1` [Example 109, (7-amino-2-methyl-pyrazolo[1,5-a]pyrimidin-6-yl)-[4-(2-tetrahydropyran-4-yl-3H-imidazo[4,5-b]pyridin-7-yl)-1-piperidyl]methanone], the IC50 on ERK5 [1] is 7940 nM.

For the compound `O=C(c1ccc(S(F)(F)(F)(F)F)cc1)N1CCC(c2c(F)cnc3[nH]c([C@H]4C[C@@H](O)C4)nc23)CC1` [Example 446, (cis)-[4-[6-fluoro-2-(3-hydroxycyclobutyl)-3H-imidazo[4,5-b]pyridin-7-yl]-1-piperidyl]-[4-(pentafluoro-λ^6-sulfanyl)phenyl]methanone], the IC50 on ERK5 [2] was 487 nM.

On ERK5 [2], `O=C(c1ccc(S(F)(F)(F)(F)F)cc1)N1CCC(c2c(F)cnc3[nH]c([C@H]4CC[C@@](O)(C(F)(F)F)CC4)nc23)CC1` [Example 450, (trans)-[4-[6-fluoro-2-[4-hydroxy-4-(trifluoromethyl)cyclohexyl]-3H-imidazo[4,5-b]pyridin-7-yl]-1-piperidyl]-[4-(pentafluoro-λ^6-sulfanyl)phenyl]methanone] had a half-maximal inhibitory concentration (IC50) of 10500 nM.

For `Nc1c(C(=O)N2CCC(c3ccnc4[nH]c(C5CCOCC5)nc34)CC2)sc(C(F)(F)F)c1-c1ccccc1` [Example 92, [3-amino-4-phenyl-5-(trifluoromethyl)-2-thienyl]-[4-(2-tetrahydropyran-4-yl-3H-imidazo[4,5-b]pyridin-7-yl)-1-piperidyl]methanone], the IC50 at ERK5 [1] was determined as 2250 nM.

Turning to `O=C(c1n[nH]c2ccccc12)N1CCC(c2ccnc3[nH]c(C4CCOCC4)nc23)CC1` [Example 78, 1H-indazol-3-yl-[4-(2-tetrahydropyran-4-yl-3H-imidazo[4,5-b]pyridin-7-yl)-1-piperidyl]methanone], the IC50 against ERK5 [1] stood at 3600 nM.

On ERK5 [1], `CO[C@H]1CC[C@H](c2nc3c(C4CCN(C(=O)c5ccc(OC(F)(F)F)cc5)CC4)ccnc3[nH]2)CC1` [Example 153, (trans)-[4-(trifluoromethoxy)phenyl]-[4-[2-(4-methoxycyclohexyl)-3H-imidazo[4,5-b]pyridin-7-yl]-1-piperidyl]methanone;hydrochloride] had an IC50 of 195 nM.

In turn, `Nc1cc(OC(F)(F)F)ccc1C(=O)N1CCC(c2ccnc3[nH]c(C4CNCC(F)(F)C4)nc23)CC1` (single isomer, unassigned) [Example 162, [2-amino-4-(trifluoromethoxy)phenyl]-[4-[2-[5,5-difluoro-3-piperidyl]-3H-imidazo[4,5-b]pyridin-7-yl]-1-piperidyl]methanone] came in with an IC50 against ERK5 [1] of 261 nM.

On ERK5 [2], `O=C(c1ccc(S(F)(F)(F)(F)F)cc1)N1CCC(c2c(F)cnc3[nH]c(C4CCN(C5CC5)CC4)nc23)CC1` [Example 431, [4-[2-(1-cyclopropyl-4-piperidyl)-6-fluoro-3H-imidazo[4,5-b]pyridin-7-yl]-1-piperidyl]-[4-(pentafluoro-λ^6-sulfanyl)phenyl]methanone] yielded an IC50 of 535 nM.

In the case of `O=C(c1nn(-c2ccccc2C(F)(F)F)cc1O)N1CCC(c2ccnc3[nH]c(C4CCOCC4)nc23)CC1` [Example 89, [4-hydroxy-1-[2-(trifluoromethyl)phenyl]pyrazol-3-yl]-[4-(2-tetrahydropyran-4-yl-3H-imidazo[4,5-b]pyridin-7-yl)-1-piperidyl]methanone], at ERK5 [1], 3160 nM corresponded to half-maximal inhibition (IC50).

Compound `O=C(C1CC(=O)N(c2ccc(F)c(F)c2)C1)N1CCC(c2ccnc3[nH]c(C4CCOCC4)nc23)CC1` (centres unmarked) [Example 107, 1-(3,4-difluorophenyl)-4-[4-(2-tetrahydropyran-4-yl-3H-imidazo[4,5-b]pyridin-7-yl)piperidine-1-carbonyl]pyrrolidin-2-one] registered an IC50 against ERK5 [1] greater than 10000 nM.

Consider `Nc1cc(OC(F)(F)F)ccc1C(=O)N1CCC(c2ccnc3[nH]c(C4CCOC4)nc23)CC1` (single isomer, unassigned) [Example 186, [2-amino-4-(trifluoromethoxy)phenyl]-[4-[2-[tetrahydrofuran-3-yl]-3H-imidazo[4,5-b]pyridin-7-yl]-1-piperidyl]methanone], for which the IC50 at ERK5 [1] was determined as 27 nM.

Compound `O=S(=O)(c1ccc(OC(F)(F)F)cc1)N1CCC(c2ccnc3[nH]c(C4CCOCC4)nc23)CC1` [Example 165, 2-tetrahydropyran-4-yl-7-[1-[4-(trifluoromethoxy)phenyl]sulfonyl-4-piperidyl]-3H-imidazo[4,5-b]pyridine] yielded an IC50 on ERK5 [1] greater than 10000 nM.

`O=C(c1ccc(OC(F)(F)F)cc1)N1CCC(c2ccnc3[nH]c(-c4csc(-c5cc(Cl)ccc5O)n4)nc23)CC1` [Example 135, [4-[2-[2-(5-chloro-2-hydroxy-phenyl)thiazol-4-yl]-3H-imidazo[4,5-b]pyridin-7-yl]-1-piperidyl]-[4-(trifluoromethoxy)phenyl]methanone] displayed an IC50 at ERK5 [1] greater than 10000 nM.

On to `Nc1cc(S(F)(F)(F)(F)F)ccc1C(=O)N1CCC(c2c(F)cnc3[nH]c(C4CCCO4)nc23)CC1` (racemic) [Example 383, (rac)-[2-amino-4-(pentafluoro-λ^6-sulfanyl)phenyl]-[4-(6-fluoro-2-tetrahydrofuran-2-yl-3H-imidazo[4,5-b]pyridin-7-yl)-1-piperidyl]methanone], for which it took 385 nM to reach half-maximal inhibition at ERK5 [2] (IC50).

In the case of `O=C(c1ccc(S(F)(F)(F)(F)F)cc1)N1CCC(c2c(F)cnc3[nH]c([C@H]4C[C@H](O)C4)nc23)CC1` [Example 448, (trans)-[4-[6-fluoro-2-(3-hydroxycyclobutyl)-3H-imidazo[4,5-b]pyridin-7-yl]-1-piperidyl]-[4-(pentafluoro-λ^6-sulfanyl)phenyl]methanone], the IC50 against ERK5 [2] came out at 175 nM.

With `O=C(c1ccc(S(F)(F)(F)(F)F)cc1)N1CCC(c2c(F)cnc3[nH]c(N4CCOCC4)nc23)CC1` [Example 449], inhibition at ERK5 [2] was half-maximal at 280 nM (IC50).

Compound `COC12CC(C(=O)N3CCC(c4ccnc5[nH]c(C6CCOCC6)nc45)CC3)(C1)C2` [Example 58, (3-Methoxy-1-bicyclo[1.1.1]pentanyl)-[4-(2-tetrahydropyran-4-yl-3H-imidazo[4,5-b]pyridin-7-yl)-1-piperidyl]methanone] showed an IC50 against ERK5 [1] greater than 10000 nM.

On to `CCn1c(=O)c(=O)[nH]c2cc(-c3nc4c(C5CCN(C(=O)c6ccc(OC(F)(F)F)cc6)CC5)ccnc4[nH]3)ccc21` [Example 139, 1-ethyl-3-hydroxy-6-[7-[1-[4-(trifluoromethoxy)benzoyl]-4-piperidyl]-3H-imidazo[4,5-b]pyridin-2-yl]quinoxalin-2-one], for which the IC50 against ERK5 [1] came out at 3270 nM.

`O=C(c1cccc(N2CCCS2(=O)=O)c1)N1CCC(c2ccnc3[nH]c(C4CCOCC4)nc23)CC1` [Example 85, [3-(1,1-dioxo-1,2-thiazolidin-2-yl)phenyl]-[4-(2-tetrahydropyran-4-yl-3H-imidazo[4,5-b]pyridin-7-yl)-1-piperidyl]methanone] registered an IC50 against ERK5 [1] greater than 10000 nM.

The compound `CC(C)(C)OC(=O)Nc1cc(OC(F)(F)F)ccc1C(=O)N1CCC(c2ccnc3[nH]c(C4CCOCC4)nc23)CC1` [Example 190, tert-butyl N-[2-[4-(2-tetrahydropyran-4-yl-3H-imidazo[4,5-b]pyridin-7-yl)piperidine-1-carbonyl]-5-(trifluoromethoxy)phenyl]carbamate] displayed an IC50 against ERK5 [1] of 979 nM.

In the case of `O=C(c1ccc(OC(F)(F)F)cc1)N1CCC(c2ccnc3[nH]c(-c4cnc5ccc(C(F)(F)F)cc5c4O)nc23)CC1` [Example 230, [4-[2-[4-hydroxy-6-(trifluoromethyl)-3-quinolyl]-3H-imidazo[4,5-b]pyridin-7-yl]-1-piperidyl]-[4-(trifluoromethoxy)phenyl]methanone], at ERK5 [1], half-maximal inhibition (IC50) was put at 6480 nM.

For the compound `Nc1cc(OC(F)(F)F)ccc1C(=O)N1CCC(c2ccnc3[nH]c(C4CCOC4)nc23)CC1` (single isomer, unassigned) [Example 187, [2-amino-4-(trifluoromethoxy)phenyl]-[4-[2-[tetrahydrofuran-3-yl]-3H-imidazo[4,5-b]pyridin-7-yl]-1-piperidyl]methanone], inhibition at ERK5 [1] was half-maximal at 41 nM (IC50).
